ChEMBL document CHEMBL5236591, “Targeting Gatekeeper Mutations for Kinase Drug Discovery” (J Med Chem, 2022)
Each block holds one compound with its values, some of them ahead of it.

Experiments:
[1] = Antiproliferative activity against mouse 32D cells expressing FLT3-D835Y assessed as cell growth inhibition; type: functional
[2] = Antiproliferative activity against mouse 32D cells expressing FLT3-ITD-F691L assessed as cell growth inhibition; type: functional
[3] = Antiproliferative activity against mouse 32D cells expressing FLT3-ITD assessed as cell growth inhibition; type: functional
[4] = biological target: Mast/stem cell growth factor receptor Kit (Homo sapiens, UniProt P10721); assay: Inhibition of wild type KIT (unknown origin)
[5] = biological target: Fibroblast growth factor receptor 4 (Mus musculus, UniProt Q03142); assay: Inhibition of FGFR4 in mouse BaF3 cells; type: cell-based
BaF3 [6] = assay: cells; conditions: Mus musculus
Description: Antiproliferative activity against mouse BaF3 cells harboring TRKA F589L mutant assessed as cell growth inhibition

BaF3 [7] = assay: Antiproliferative activity against mouse BaF3 cells harboring FLT3 D835Y mutant assessed as cell growth inhibition; type: functional, cell-based
MOLM-14 = assay: Antiproliferative activity against human MOLM-14 cells harboring FLT3 F691L mutant assessed as cell growth inhibition; type: functional, cell-based
BaF3 [8] = assay: Antiproliferative activity against mouse BaF3 cells harboring FLT3 F691L mutant assessed as cell growth inhibition; type: functional, cell-based

Chain of Mast/stem cell growth factor receptor Kit (P10721 whole entry): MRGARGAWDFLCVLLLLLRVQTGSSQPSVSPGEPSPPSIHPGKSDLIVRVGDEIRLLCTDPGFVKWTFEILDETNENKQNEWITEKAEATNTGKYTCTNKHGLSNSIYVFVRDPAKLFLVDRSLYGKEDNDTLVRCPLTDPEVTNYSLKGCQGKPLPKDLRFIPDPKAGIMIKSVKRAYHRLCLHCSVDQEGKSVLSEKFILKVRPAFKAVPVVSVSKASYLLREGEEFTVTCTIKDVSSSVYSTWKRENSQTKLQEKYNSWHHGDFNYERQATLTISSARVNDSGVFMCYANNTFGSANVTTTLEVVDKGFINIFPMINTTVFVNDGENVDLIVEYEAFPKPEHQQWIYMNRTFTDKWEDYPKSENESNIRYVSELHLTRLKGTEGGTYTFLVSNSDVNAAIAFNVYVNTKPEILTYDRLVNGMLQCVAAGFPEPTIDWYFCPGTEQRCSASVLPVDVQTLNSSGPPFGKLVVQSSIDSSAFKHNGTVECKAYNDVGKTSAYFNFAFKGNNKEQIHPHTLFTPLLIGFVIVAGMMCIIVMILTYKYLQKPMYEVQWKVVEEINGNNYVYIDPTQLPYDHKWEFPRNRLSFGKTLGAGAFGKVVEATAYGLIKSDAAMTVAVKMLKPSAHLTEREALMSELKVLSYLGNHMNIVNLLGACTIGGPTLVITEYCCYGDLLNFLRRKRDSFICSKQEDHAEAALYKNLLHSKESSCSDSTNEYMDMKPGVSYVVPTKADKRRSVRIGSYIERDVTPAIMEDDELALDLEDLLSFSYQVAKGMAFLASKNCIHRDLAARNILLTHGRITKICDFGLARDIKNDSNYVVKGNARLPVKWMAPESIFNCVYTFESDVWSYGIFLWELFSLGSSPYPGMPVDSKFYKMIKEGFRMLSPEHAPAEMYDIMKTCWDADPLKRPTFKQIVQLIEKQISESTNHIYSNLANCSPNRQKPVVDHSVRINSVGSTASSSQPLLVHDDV
Chain of Fibroblast growth factor receptor 4 (Q03142 whole entry): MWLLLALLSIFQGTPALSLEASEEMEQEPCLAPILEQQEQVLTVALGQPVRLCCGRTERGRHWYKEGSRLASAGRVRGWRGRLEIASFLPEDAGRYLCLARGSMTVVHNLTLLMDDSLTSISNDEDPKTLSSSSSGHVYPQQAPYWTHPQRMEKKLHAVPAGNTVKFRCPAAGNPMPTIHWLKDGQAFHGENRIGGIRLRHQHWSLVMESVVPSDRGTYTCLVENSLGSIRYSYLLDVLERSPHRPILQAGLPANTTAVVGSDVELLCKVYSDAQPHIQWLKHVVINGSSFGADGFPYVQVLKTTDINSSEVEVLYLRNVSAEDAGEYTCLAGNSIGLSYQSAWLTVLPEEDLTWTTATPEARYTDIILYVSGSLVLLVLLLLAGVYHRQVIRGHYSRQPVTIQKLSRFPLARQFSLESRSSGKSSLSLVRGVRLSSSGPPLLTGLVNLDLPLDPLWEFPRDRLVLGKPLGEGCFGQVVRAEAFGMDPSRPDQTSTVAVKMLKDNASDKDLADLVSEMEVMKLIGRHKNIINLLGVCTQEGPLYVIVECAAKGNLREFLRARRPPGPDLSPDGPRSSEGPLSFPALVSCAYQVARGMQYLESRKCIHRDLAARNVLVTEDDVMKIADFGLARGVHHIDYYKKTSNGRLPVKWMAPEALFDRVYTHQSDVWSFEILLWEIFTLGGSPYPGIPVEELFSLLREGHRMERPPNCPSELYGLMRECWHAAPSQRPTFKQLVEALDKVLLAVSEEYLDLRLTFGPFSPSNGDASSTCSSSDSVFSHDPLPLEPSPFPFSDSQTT

Structure (SMILES): CCCNc1nc(Nc2ccc(C#N)cc2)ncc1C#CCCCNC(=O)[C@H](C)N(C)C(=O)/C=C/CN(C)C [FF-10101]
GI50 [1]: 0.81 nM | GI50 [2]: 10 nM | GI50 [3]: 1.9 nM

Structure (SMILES): FC(F)(F)c1ccc(CNc2ccc(Cc3c[nH]c4ncc(Cl)cc34)cn2)cn1 [PEXIDARTINIB]
IC50 (BaF3 [7]): 4700 nM | IC50 (MOLM-14): 670 nM | IC50 (BaF3 [8]): 97 nM

Continued, values first:

IC50 [4]: 3 nM
Structure (SMILES): COCCOc1cc(F)c2c(Nc3ccc(NC(=O)Cn4cc(C(C)C)nn4)cc3)ncnc2c1

IC50 [5]: 3.5 nM
Structure (SMILES): C=CC(=O)Nc1cc(N2CCC(N3CCOCC3)CC2)cc(F)c1Nc1n[nH]c2ccc(O[C@H](C)c3c(Cl)cncc3Cl)cc12

IC50 (BaF3 [6]): 27.8 nM
Structure (SMILES): C[C@@H]1CCc2ncc(F)cc2[C@H]2CCCN2c2ccn3ncc(c3n2)C(=O)N1 [SELITRECTINIB]
